Biological target: Acetylcholinesterase (Electrophorus electricus, UniProt O42275)
Sequence (O42275 whole entry): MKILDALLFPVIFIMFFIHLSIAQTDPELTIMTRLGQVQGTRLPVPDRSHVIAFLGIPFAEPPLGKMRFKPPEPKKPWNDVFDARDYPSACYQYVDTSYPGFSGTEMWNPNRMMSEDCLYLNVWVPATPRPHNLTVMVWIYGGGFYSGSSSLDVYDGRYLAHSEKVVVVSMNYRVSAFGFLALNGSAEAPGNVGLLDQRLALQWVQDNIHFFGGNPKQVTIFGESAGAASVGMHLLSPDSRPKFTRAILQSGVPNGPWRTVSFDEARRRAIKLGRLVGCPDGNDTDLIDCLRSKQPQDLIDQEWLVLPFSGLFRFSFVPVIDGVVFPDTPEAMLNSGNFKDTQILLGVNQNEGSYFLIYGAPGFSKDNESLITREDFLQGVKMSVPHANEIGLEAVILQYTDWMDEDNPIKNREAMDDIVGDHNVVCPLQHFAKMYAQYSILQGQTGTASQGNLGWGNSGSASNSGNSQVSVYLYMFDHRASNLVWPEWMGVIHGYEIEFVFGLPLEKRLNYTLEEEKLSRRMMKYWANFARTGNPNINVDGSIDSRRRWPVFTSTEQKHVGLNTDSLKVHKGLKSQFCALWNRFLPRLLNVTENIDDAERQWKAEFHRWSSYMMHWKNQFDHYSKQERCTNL
Description: Inhibition of Electrophorus electricus AChE after 120 secs by Ellman spectroscopic method

| SMILES | IC50 [µM] |
| --- | --- |
| CC(C)=CCC/C(C)=C/Cc1c(O)c(C(=O)CC(C)C)c2oc(=O)cc(-c3ccccc3)c2c1O | > 20 |
| CCC(C)C(=O)c1c(O)c(C/C=C(\C)CCC=C(C)C)c(O)c2c(-c3ccccc3)cc(=O)oc12 (centres undefined) | 3.06 |
| CC(C)CC(=O)c1c(O)c2c(c3c(-c4ccccc4)cc(=O)oc13)OC(C(C)(C)O)C2 (centres undefined) | > 20 |
| CC(C)CC(=O)c1c(O)c2c(c3c(-c4ccccc4)cc(=O)oc13)OC(C)(C)C=C2 [ISOMAMMEIGIN] | > 20 |
| CC(C)=CCc1c(O)c(C(=O)CC(C)C)c2oc(=O)cc(-c3ccccc3)c2c1O [ISOMAMMEISIN] | > 20 |
| CC(C)=CCCC1(C)C=Cc2c(O)c(C(=O)CC(C)C)c3oc(=O)cc(-c4ccccc4)c3c2O1 (centres undefined) [MESUAGENIN A] | 1.06 |
| CCC(C)C(=O)c1c(O)c2c(c3c(-c4ccccc4)cc(=O)oc13)OC(C)(CCC=C(C)C)C=C2 (centres undefined) [MESUAGENIN B] | 0.7 |
| CC(C)=CCC/C(C)=C/Cc1c(O)c(C(=O)C(C)C)c2oc(=O)cc(-c3ccccc3)c2c1O [MESUAGENIN C] | > 20 |
| CC(C)CCC(C)(O)C1(C)Cc2c(O)c(C(=O)CC(C)C)c3oc(=O)cc(-c4ccccc4)c3c2O1 (centres undefined) [MESUAGENIN D] | 8.73 |

Source: ChEMBL document CHEMBL1275353, “4-Phenylcoumarins from Mesua elegans with acetylcholinesterase inhibitory activity” (Bioorg Med Chem, 2010)
